Experimental data from patent publication US10233143B2, “Pseudoceramide compound, and external use skin preparation composition containing same” (AE KYUNG INDUSTRIAL CO., LTD, priority 2014, dated 2019).

Tests used:
[1] = Strengthening internal hair tissues: hair breakage after 10,000 brushings (Experimental Example 3); conditions: for Numbers of broken hairs: hair essence with 0.2 wt % of the substance applied once, among 4,000 strands after 10,000 brushings, untreated 89; for Hair breakage improvement rate: hair essence with 0.2 wt % of the substance, versus untreated hairs
Method: A formulation of hair essence including novel compounds comprising pseudoceramide prepared in Example 7, a formulation of hair essence including conventional pseudoceramide prepared in Comparative Example 5, a formulation of hair essence without pseudoceramide prepared in Comparative Example 6 were evaluated in view of internal hair tissue strengthening effect. The internal hair tissue strengthening effect was tested in the following manner.
After hairs damaged by permanent weaving, bleaching, shampooing, thermal stimulation, brushing and so on were prepared, ceramide administered essence was applied once to the damaged hairs. In order to evaluate strengths of internal tissues of the hair, after the hair was brushed 10,000 times, a hair breakage improvement rate was calculated using the number of broken strands of untreated hairs and the number of broken strands of treated hairs. The number of hairs used in the experiment was 4,000 in total for each sample.
The hair breakage improvement rate was calculated by the following equation: Breakage improvement rate (%)=(Number of broken strands of untreated hairs−Number of broken strands of treated hairs)/Number of broken strands of untreated hairs

[2] = test system: Propionibacterium acnes (ATCC 6919); test: Minimum inhibitory concentration against Propionibacterium acnes (agar medium); format: cell-based; conditions: media treated with the sample
Method: To investigate anti-microvial activity of the pseudoceramide compound represented by Formula 3 according to the present invention against propionibacterium acnes, the minimum inhibitory concentration (MIC) of the pseudoceramide sample was measured in the following manner. The sample to be tested was added to reinforced clostridial agar medium (commercially available from Difco Co.) in an amount of 0.06 to 1.0%, followed by solidification of the medium. The suspension of pre-incubated Propionibacterium acnes ATCC 6919 was streaked on the surface of the medium and the medium was incubated for 3 days at 37° C. under anaerobic condition.

[3] = test system: HaCaT human keratinocyte cells; test: Cytotoxicity assay (MTT); format: cell-based; conditions: one day incubation, absorbance 540 nm
Method: Extents of citotoxicity were measured using HaCaT human keratinocyte cells. The HaCaT human keratinocyte cells were maintained in Dulbecco's modified Eagle's medium (DMEM) supplemented with 10% fetal bovine serum (FBS)] and then seeded onto 96-well plates with a concentration of 6×10^3 cells to be cultured at 37° C. in a 5% CO2 atmosphere for one day. Then, the DMEM was replaced with a new one and samples were treated by a serial dilution method with various concentrations ranging from 2.5 mM and then incubated for one day. After one day, 10 μl MTT reagents were treated with a 5 mg/mL concentration in media and the HaCaT cells were then incubated at 37° C. in a 5% CO2 atmosphere for 4 hours. The media were removed and 150 μl DMSO reagent was added to each well to dissolve violet crystals. Absorbance at 540 nm was measured.
A reaction solution without a sample was used as a negative control group. A cell growth rate for each sample solution was calculated by the following equation (1) and the results are shown in FIG. 7: Cell growth rate (%)=A/B×100 (1)
B: Absorbance of negative control group

| SMILES | Numbers of broken hairs [1] | Hair breakage improvement rate [1] [%] | growth of strain in treated media (FIG. 8) [2] | half maximum inhibitory concentration (IC50), cell growth rate [3] [ppm] |
| --- | --- | --- | --- | --- |
| CCCCCCCCCCCCCCCCCC(=O)N[C@@H](CO)[C@H](O)[C@H](O)CCCCCCCCCCCCCC [ceramide 3, reference compound] | 63 | 27 |  |  |
| CCCCCCCC/C=C/CCCCCCCCNC(=O)CC(/C=C/CCCCCCCCCC)C(=O)O (stereo not drawn) [Formula 3] | 31 | 64 | no strain was expressed | 516.83 |
